One assay deals with T1, CrGluClα (Caligus rogercresseyi, UniProt A0A1W6LZ70).
T1 construct: full-length ORF (clones CrGluCl-Vald13 and CrGluCl-Vald2)
Put plainly: two-electrode voltage clamp in Xenopus oocytes expressing the channel; agonist concentration-response. The assay is classed as cell-based.

For a further assay, the target named is T2, CrGluClα-T318A (Caligus rogercresseyi, UniProt A0A1W6LZ70, T318A).
T2 construct: full ORF in pCR3.1, homopentamer expressed in Xenopus laevis oocytes, T318A point mutant at extracellular end of M3
Put plainly: two-electrode voltage clamp in Xenopus oocytes; concentration-response of small evoked currents (Figure 9D). It is filed as cell-based. On the technique in general: Two-electrode voltage clamp holds a large cell at a set potential and records current.

T1 sequence (A0A1W6LZ70 entry or part of it): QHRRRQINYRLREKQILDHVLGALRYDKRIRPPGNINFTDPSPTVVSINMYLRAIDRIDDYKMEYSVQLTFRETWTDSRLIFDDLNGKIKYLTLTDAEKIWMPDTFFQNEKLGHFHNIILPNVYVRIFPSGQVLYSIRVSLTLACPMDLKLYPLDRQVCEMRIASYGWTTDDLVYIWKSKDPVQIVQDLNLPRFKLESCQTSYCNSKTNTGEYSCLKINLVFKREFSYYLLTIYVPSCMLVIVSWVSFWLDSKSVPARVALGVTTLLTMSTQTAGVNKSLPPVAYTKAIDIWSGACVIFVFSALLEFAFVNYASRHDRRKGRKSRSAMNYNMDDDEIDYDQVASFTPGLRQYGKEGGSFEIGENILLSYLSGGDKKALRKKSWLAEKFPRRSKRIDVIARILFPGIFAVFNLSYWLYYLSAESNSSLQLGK
T2 sequence (A0A1W6LZ70 33-463 T318A): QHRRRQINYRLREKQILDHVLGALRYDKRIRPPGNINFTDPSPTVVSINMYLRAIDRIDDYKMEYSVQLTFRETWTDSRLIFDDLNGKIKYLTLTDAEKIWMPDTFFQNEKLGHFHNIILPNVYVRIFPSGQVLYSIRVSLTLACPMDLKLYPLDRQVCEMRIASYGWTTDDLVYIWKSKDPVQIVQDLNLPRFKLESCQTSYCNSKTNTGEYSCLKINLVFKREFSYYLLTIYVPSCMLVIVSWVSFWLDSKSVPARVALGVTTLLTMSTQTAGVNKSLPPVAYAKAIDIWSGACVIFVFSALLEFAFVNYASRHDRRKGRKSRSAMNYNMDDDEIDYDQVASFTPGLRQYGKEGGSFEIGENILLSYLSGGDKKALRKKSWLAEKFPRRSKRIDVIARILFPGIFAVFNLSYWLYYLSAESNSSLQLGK

For orientation: EC50 means the concentration at which the effect is half-maximal. For `N[C@@H](CCC(=O)O)C(=O)O` [L-glutamate], the EC50 on CrGluClα was found to be 6.89 ± 0.83 µM. Also, at CrGluClα-T318A, the “concentration-response of evoked currents” value is listed as “Maximal response was reached at lower glutamate concentrations in the CrGluClα-T318A mutant channel”.
